Results: article PMC12749748, “Chemically-induced degradation of the endoplasmic-reticulum stress sensor IRE1 by a VHL-recruiting chimera” (Nature Communications, 2025)

How the values were obtained:
[1] = target: IRE1 (Homo sapiens, UniProt O75460); assay: SelectScreen kinase profiling, IRE1; format: biochemical; details: 1 µM, 1 h
Method: The kinome selectivity of G6374 was assessed at 1 μM for 1 h versus a panel of 220 human kinases (SelectScreen Kinase Profiling Services, Thermo Fisher Scientific). The assays were conducted using either the Z’-LYTE technology to assess inhibition of enzyme activity ([ATP] = Km) or the TR-FRET-based LanthaScreen Eu Kinase Binding assay to assess competitive displacement of an ATP site binding probe. Assay results were normalized to positive and negative controls to determine percent inhibition. Image was created by KNIME Report Designer (KNIME.com AG, Zurich, Switzerland). Kinases for which ATP binding was inhibited by more than 90% were further examined by IB analysis for depletion by G6374 in AMO1 cells (4 h incubation).

[2] = target: T1, IRE1.KR with recombinant CRL2^VHL complex (Homo sapiens, UniProt O75460+P40337); assay: In vitro ubiquitination of recombinant IRE1.KR by CRL2^VHL; format: biochemical; details: 0.2 µM IRE1, 0.2 µM G6374, UBE2R1, native ubiquitin
T1 construct: Recombinant human IRE1.KR (G547-L977) was purified using an established protocol; His6 (with TEV protease cleavage site) (N, cleaved yes); made in house; host or cells: Sf9 (IRE1.KR)
Method: The protocol for the in vitro ubiquitination experiment was adapted from a previous publication.
The ubiquitination reaction buffer contained 30 mM Tris pH 7.5, 100 mM NaCl, 5 mM MgCl2, 2 mM ATP, and 2 mM DTT. Recombinant proteins and G6374 with high stock concentrations were pre-diluted in binding buffer containing 30 mM Tris, pH 7.5, 100 mM NaCl, 1 mM DTT for the purpose of accurate pipetting.
The 0.2 µM IRE1: 0.2 µM G6374 (or DMSO) complex was pre-incubated for 15 min at room temperature, then incubated with the neddylation reaction mixture containing 0.2 µM VHL:EloB:EloC, 0.2 µM CUL2-RBX1, 0.1 µM NAE1:UBA3, 1 μM UBE2M, 3 μM NEDD8 for another 15 min at room temperature. Meanwhile, the ubiquitination reaction mixture containing 1 μM UBE1, 5 μM UBE2R1 (or UBE2D1, UBE2D2), and 500 μM ubiquitin or methyl-ubiquitin was prepared and pre-incubated for 15 min before incubation with the neddylation reaction mixture containing IRE1:G6374. Samples were taken at each timepoint and quenched in NuPage LDS buffer supplemented with NuPAGE sample reducing agent, then boiled at 95 °C for 10 min. Ubiquitinated products were visualized by IB with the IRE1 antibody.

[3] = test system: IRE1 L577D, V586D, A597D, L644D, L695D, E651A; assay: NanoBRET with IRE1 point mutants disrupting IRE1:G6374 interactions; format: cell-based; details: each of L577D, HEK293T
Method: 8 × 10^5 293T cells per well were seeded in 6-well plates (Costar, #3516) and incubated at 37 °C, 5% CO2 for 6 h. A mixture of 0.2 µg ERN1 (IRE1)-NanoLuc Fusion Vector (Promega, NV1321), 2 µg HaloTag-VHL Fusion Vector (Promega, N2731), 6 µl FuGENE HD Transfection Reagent (Promega, E2311), and 100 µL Opti-MEM I reduced serum medium (Gibco, #31985062) per well was incubated at room temperature for 20 min before adding to cells. For expression of IRE1 mutants, site-directed mutagenesis was performed using the ERN1-NanoLuc Fusion Vector as the DNA template, and the transfection mixture was prepared in the same way as WT IRE1. After 18 h, cells from 6-well plates were trypsinized, resuspended in Opti-MEM I reduced serum medium, and reseeded into 96-well plates (Costar, #3917), with or without the addition of HaloTag NanoBRET 618 Ligand (Promega, G9801). After 18 h of incubation, a titration of G6374 (dilutions made in Opti-MEM I reduced serum medium) was added to the cells. After 2 h of G6374 treatment, NanoBRET Nano-Glo Substrate (Promega, N1571) was added to cells. The 96-well plates were imaged by GloMax Discover Microplate Reader (Promega, GM3000) with the default “BRET: NanoBRET 618” protocol (Donor: 450 BP; Acceptor: 600 LP; Integration: 0.3 s). Data analysis was performed according to the user manual.

[4] = target: VCB (VHL:EloC:EloB) (Homo sapiens, UniProt P40337); assay: Surface plasmon resonance, binary interaction with VCB; format: binding; details: SPR, immobilised VCB, 20 °C, 1 to 1 kinetic model
Method: All SPR experiments in this paper were recorded on a Biacore S200 instrument; all protein captures and data collection were at 20 °C.
For binary interactions with G6374: a Xantec SAHC 200 M (streptavidin) chip was inserted into the instrument and primed into running buffer [50 mM HEPES (pH 7.4), 150 mM NaCl, 0.001% Tween 20, 0.2% PEG3350, 0.25 mM TCEP, and 2% DMSO]. Biotinylated human IRE1.KR protein was captured on FC2 to 2-4000 RU, biotinylated VHL in complex with Elongin B (VHL/EloB) was captured on FC4 to 1-2000 RU, data were collected, and all referenced to FC1. Affinity for G6374 was measured using a titration series, injected from low to high with an 8-point, 2-fold dilution dose response with a top concentration of 0.5 μM in both single cycle (single cycle kinetics (SCK)) and multi cycle kinetics (MCK) formats. For MCK experiments, an association time of 45 s and a dissociation time of 200 s with a flow rate of 50 μL/min. For SCK experiments, an association time of 45 s and a dissociation time of 2000 s with a flow rate of 50 μL/min were used. All data were analyzed using Insight software (Cytiva) using a 1 to 1 kinetic binding model.

[5] = test system: AMO1 cells; assay: Incucyte cell confluency, AMO1 cells; format: cell-based; details: AMO1 shIRE1 cells, titration
Method: (§1) For non-adherent AMO1, KMS27, and OPM2 cells, cells were plated at 5000 cells/well in ultra-low attachment (ULA) 96-well plates (Costar, #7007) and centrifuged at 600 × g for 5 min for spheroid formation. For adherent U2OS and Colo201 cells, 2000 cells/well were seeded in a clear flat-bottom 96-well plate (Costar, #3595). Treatments were added at the time of cell seeding, and cells were cultured in complete RPMI media to a final volume of 200 µL/well. Cultures were maintained at 37 °C throughout the duration of the experiment. Cell confluency was tracked using the Incucyte live-cell imaging system (Sartorius S3). Picture frames were captured every 4 h with a 4× objective, and cell confluency (%) from the total well area as a function of time was calculated using the Incucyte software (version 2023 A Rev2).

[6] = test system: U2OS cells; assay: Incucyte cell confluency, U2OS cells; format: cell-based; details: U2OS shIRE1 cells, titration
Method: as §1

[7] = test system: IRE1; parameters: method as in earlier work; details: VHL:G6374:IRE1; cited from earlier work

Chain of VCB (VHL:EloC:EloB) (P40337 whole entry): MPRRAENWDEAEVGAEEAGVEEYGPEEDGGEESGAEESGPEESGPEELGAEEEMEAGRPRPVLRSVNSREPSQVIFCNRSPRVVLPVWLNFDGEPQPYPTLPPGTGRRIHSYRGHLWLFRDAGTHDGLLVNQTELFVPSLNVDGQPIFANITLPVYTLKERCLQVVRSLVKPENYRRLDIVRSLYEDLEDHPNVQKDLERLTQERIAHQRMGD
Chain of VCB (VHL:EloC:EloB) (Q15370 whole entry partner): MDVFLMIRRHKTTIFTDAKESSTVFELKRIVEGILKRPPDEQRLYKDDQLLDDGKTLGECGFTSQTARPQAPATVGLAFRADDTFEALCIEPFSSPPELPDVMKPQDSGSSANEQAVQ
Chain of VCB (VHL:EloC:EloB) (Q15369 whole entry partner): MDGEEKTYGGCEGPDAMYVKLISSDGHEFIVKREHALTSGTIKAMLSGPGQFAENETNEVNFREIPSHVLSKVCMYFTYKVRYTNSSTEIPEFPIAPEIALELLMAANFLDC
Chain of IRE1 (Homo sapiens, UniProt O75460) (O75460 19-977): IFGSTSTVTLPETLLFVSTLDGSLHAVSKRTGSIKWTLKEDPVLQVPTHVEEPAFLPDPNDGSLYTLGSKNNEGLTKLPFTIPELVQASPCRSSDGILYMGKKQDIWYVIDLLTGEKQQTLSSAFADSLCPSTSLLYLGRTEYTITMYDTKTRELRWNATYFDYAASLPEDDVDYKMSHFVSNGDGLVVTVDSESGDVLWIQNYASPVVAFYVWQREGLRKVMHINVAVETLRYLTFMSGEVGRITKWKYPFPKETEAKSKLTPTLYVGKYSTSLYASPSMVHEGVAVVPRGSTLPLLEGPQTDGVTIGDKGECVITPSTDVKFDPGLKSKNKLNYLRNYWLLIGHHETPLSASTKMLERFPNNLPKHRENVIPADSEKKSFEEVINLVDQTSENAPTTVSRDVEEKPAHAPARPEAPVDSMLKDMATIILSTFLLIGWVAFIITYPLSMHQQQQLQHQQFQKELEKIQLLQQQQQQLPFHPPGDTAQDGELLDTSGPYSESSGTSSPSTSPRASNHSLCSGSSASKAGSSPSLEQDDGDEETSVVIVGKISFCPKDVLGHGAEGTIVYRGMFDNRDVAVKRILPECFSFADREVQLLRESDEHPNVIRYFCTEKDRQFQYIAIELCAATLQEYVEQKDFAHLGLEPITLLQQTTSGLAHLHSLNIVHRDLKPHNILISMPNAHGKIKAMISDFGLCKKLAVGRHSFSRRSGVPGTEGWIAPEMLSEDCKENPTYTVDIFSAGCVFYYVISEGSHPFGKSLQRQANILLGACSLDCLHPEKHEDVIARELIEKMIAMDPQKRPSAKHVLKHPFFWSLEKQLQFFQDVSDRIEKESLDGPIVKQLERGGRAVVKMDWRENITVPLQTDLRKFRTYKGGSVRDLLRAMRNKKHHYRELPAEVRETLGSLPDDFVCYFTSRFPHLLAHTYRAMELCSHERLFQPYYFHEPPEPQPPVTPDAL

In the case of Cc1ncsc1-c1ccc(CNC(=O)[C@@H]2C[C@@H](O)CN2C(=O)[C@@H](NC(=O)CCCCN2CCN([C@H]3CC[C@H](Nc4ncc5ccc(=O)n(C(C)C)c5n4)CC3)CC2)C(C)(C)C)cc1 [G6374], the “inhibition of IRE1” value [1] is reported as “complete inhibition”, the “IRE1.KR polyubiquitination in vitro” value [2] is reported as “clear G6374-dependent IRE1 polyubiquitination” and the “G6374-induced IRE1:VHL interaction and IRE1 degradation with IRE1 point mutants” value [3] is reported as “abolish the G6374-induced interaction between IRE1 and VHL”. The Kd [4] was 90.2 nM, the kd [4] was 0.0477 s⁻¹ and the kon ([4]; read-out: ka) was 514000 M⁻¹ s⁻¹. For the same compound, the “growth inhibition (cell confluency)” value [5] was “concentration-dependent growth inhibition”, the “proliferation rate (cell confluency)” value [6] was “did not affect the proliferation rate” and the Dmax [7] was 95%.
